According to patent US11274332B2, “Methods of administering 3,4-diaminopyridine” (SERB SA, priority 2011, dated 2022):
Values joined by “and” are separate entries in the source; they are usually repeats but may differ in a detail not shown here. Equal entries are not always repeated.

Experiment: Food-effect crossover study, adverse events after single 20 mg amifampridine phosphate in healthy subjects (Examples 10, 11)
Type: in vivo
Method: This was a randomized, open-label, 2-treatment, 2-period crossover study with 44 completed subjects to assess the safety, tolerability, and the effect of food on the relative bioavailability of a single dose of amifampridine phosphate.
Safety was evaluated for all subjects who take at least one dose of 3,4-DAP. Safety was evaluated by recording the incidence of adverse events (AEs), physical examination, vital signs, concomitant medications, clinical laboratory assessments, and 12-lead electrocardiogram (ECG).
Analysis for the following safety parameters was carried out on the Safety Population: AEs which included all AEs, AEs by severity, drug-related AEs, deaths, SAEs, AEs leading to study discontinuation, and most frequent AEs, standard clinical laboratory tests, vital signs, ECG measurements, routine physical examinations, and prior and concomitant medications. The cut-off for frequency of AEs reported was determined based on the data. No formal statistical testing was performed for the safety analyses; only descriptive statistics were provided. Appropriate descriptive statistics for the safety data were determined using SAS Version 9.2.
AEs were coded according to the Medical Dictionary for Regulatory Activities (MedDRA; Version 13.0). […] The occurrence of AEs was assessed continuously from the time the subject signed the VID and consent. The reporting period for non-serious AEs was from the first dose to the final study visit. The investigator determined the severity of each event and the relationship of an AE to the IP and recorded it on the source documents and AE CRF. The nature, time of onset, duration, severity, and relationship to study drug was documented, including documentation of investigator assessment and review. All events were assessed to determine if the AE was serious.
The Investigator determined the severity of each event and the event was recorded on the source documents and AE CRF. A coding of “mild” meant there was no limitation of usual activities, “moderate” meant there was some limitation of usual activities, “severe” meant there was an inability to carry out usual activities.
The reporting period for AEs that met the criteria of an SAE began from the time of signing the VID and consent form through follow-up or early termination. […] Clinical Laboratory Assessments

Nc1ccncc1N.O=P(O)(O)O [amifampridine phosphate, 3,4-diaminopyridine phosphate]
55: Possibly or probably related AEs, Mild: events (Fasted N=45)
29%: Paraesthesia Oral, drug-related AE: % of subjects (Fasted N=45)
4%: Abdominal Pain Upper, drug-related AE: % of subjects (Fasted N=45) | General Disorders and Administration Site Conditions Total, drug-related AE: % of subjects (Fasted N=45) | Hypoaesthesia, drug-related AE: % of subjects (Fasted N=45)
43: Nervous System Disorders Total, drug-related AE: events (Fasted N=45)
7: Gastrointestinal Disorders Total, drug-related AE: subjects (Fasted N=45)
11%: Dizziness, drug-related AE: % of subjects (Fasted N=45)
5: Dizziness, drug-related AE: events (Fasted N=45) | Dizziness, drug-related AE: subjects (Fasted N=45)
48%: All treatment emergent AEs, Mild: % of subjects (Fed N=46)
60: All treatment emergent AEs, Mild: events (Fasted N=45)
7%: Abdominal Pain, drug-related AE: % of subjects (Fasted N=45) | Hypoaesthesia Oral, drug-related AE: % of subjects (Fasted N=45) | Nausea, drug-related AE: % of subjects (Fasted N=45)
16%: Gastrointestinal Disorders Total, drug-related AE: % of subjects (Fasted N=45)
0: All treatment emergent AEs, Severe: subjects (Fasted N=45) | Constipation, drug-related AE: subjects (Fasted N=45) | Discontinued due to adverse events: subjects (Fasted N=45) | Flushing, drug-related AE: subjects (Fasted N=45) | Possibly or probably related AEs, Severe: subjects (Fasted N=45) | Serious adverse events: subjects (Fasted N=45) | Vascular Disorders Total, drug-related AE: subjects (Fasted N=45) | Abdominal Pain Upper, drug-related AE: subjects (Fed N=46) | Abdominal Pain, drug-related AE: subjects (Fed N=46) | Abdominal Tenderness, drug-related AE: subjects (Fed N=46) | Acne, drug-related AE: subjects (Fed N=46)
9%: Headache, drug-related AE: % of subjects (Fasted N=45)
61: All treatment emergent AEs, Total: events (Fasted N=45)
56: Possibly or probably related AEs, Total: events (Fasted N=45)
1: Abdominal Tenderness, drug-related AE: events (Fasted N=45) | Abdominal Tenderness, drug-related AE: subjects (Fasted N=45) | Acne, drug-related AE: events (Fasted N=45) | Acne, drug-related AE: subjects (Fasted N=45) | All treatment emergent AEs, Moderate: events (Fasted N=45) | All treatment emergent AEs, Moderate: subjects (Fasted N=45) | Diarrhoea, drug-related AE: events (Fasted N=45) | Diarrhoea, drug-related AE: subjects (Fasted N=45) | Dysgeusia, drug-related AE: events (Fasted N=45) | Dysgeusia, drug-related AE: subjects (Fasted N=45) | Fatigue, drug-related AE: events (Fasted N=45) | Fatigue, drug-related AE: subjects (Fasted N=45) | Feeling Hot, drug-related AE: events (Fasted N=45) | Feeling Hot, drug-related AE: subjects (Fasted N=45) | Hypoaesthesia Facial, drug-related AE: events (Fasted N=45) | Hypoaesthesia Facial, drug-related AE: subjects (Fasted N=45) | Possibly or probably related AEs, Moderate: events (Fasted N=45) | Possibly or probably related AEs, Moderate: subjects (Fasted N=45) | Skin and Subcutaneous Tissue Disorders Total, drug-related AE: events (Fasted N=45) | Skin and Subcutaneous Tissue Disorders Total, drug-related AE: subjects (Fasted N=45) | All treatment emergent AEs, Moderate: events (Fed N=46) | All treatment emergent AEs, Moderate: subjects (Fed N=46) | All treatment emergent AEs, Severe: events (Fed N=46) | All treatment emergent AEs, Severe: subjects (Fed N=46) | Constipation, drug-related AE: events (Fed N=46) | Constipation, drug-related AE: subjects (Fed N=46)
23 and 24: All treatment emergent AEs, Total: subjects (Fasted N=45, phosphate)
13: Paraesthesia Oral, drug-related AE: subjects (Fasted N=45)
4: Headache, drug-related AE: events (Fasted N=45) | Headache, drug-related AE: subjects (Fasted N=45)
53%: All treatment emergent AEs, Mild: % of subjects (Fasted N=45)
40: All treatment emergent AEs, Total: events (Fed N=46)
22: All treatment emergent AEs, Mild: subjects (Fed N=46)
2: Abdominal Pain Upper, drug-related AE: events (Fasted N=45) | Abdominal Pain Upper, drug-related AE: subjects (Fasted N=45) | General Disorders and Administration Site Conditions Total, drug-related AE: events (Fasted N=45) | General Disorders and Administration Site Conditions Total, drug-related AE: subjects (Fasted N=45) | Hypoaesthesia, drug-related AE: events (Fasted N=45) | Hypoaesthesia, drug-related AE: subjects (Fasted N=45)
38: All treatment emergent AEs, Mild: events (Fed N=46)
12: Paraesthesia, drug-related AE: events (Fasted N=45)
10: Gastrointestinal Disorders Total, drug-related AE: events (Fasted N=45) | Paraesthesia, drug-related AE: subjects (Fasted N=45)
15: Paraesthesia Oral, drug-related AE: events (Fasted N=45)
(0%) [0]: All treatment emergent AEs, Severe: % of subjects (Fasted N=45) | All treatment emergent AEs, Severe: events (Fasted N=45) | Constipation, drug-related AE: % of subjects (Fasted N=45) | Constipation, drug-related AE: events (Fasted N=45) | Discontinued due to adverse events: % of subjects (Fasted N=45) | Discontinued due to adverse events: events (Fasted N=45) | Flushing, drug-related AE: % of subjects (Fasted N=45) | Flushing, drug-related AE: events (Fasted N=45) | Possibly or probably related AEs, Severe: % of subjects (Fasted N=45) | Possibly or probably related AEs, Severe: events (Fasted N=45) | Serious adverse events: % of subjects (Fasted N=45) | Serious adverse events: events (Fasted N=45) | Vascular Disorders Total, drug-related AE: % of subjects (Fasted N=45) | Vascular Disorders Total, drug-related AE: events (Fasted N=45) | Abdominal Pain Upper, drug-related AE: % of subjects (Fed N=46) | Abdominal Pain Upper, drug-related AE: events (Fed N=46) | Abdominal Pain, drug-related AE: % of subjects (Fed N=46) | Abdominal Pain, drug-related AE: events (Fed N=46) | Abdominal Tenderness, drug-related AE: % of subjects (Fed N=46) | Abdominal Tenderness, drug-related AE: events (Fed N=46) | Acne, drug-related AE: % of subjects (Fed N=46) | Acne, drug-related AE: events (Fed N=46)
3: Abdominal Pain, drug-related AE: events (Fasted N=45) | Abdominal Pain, drug-related AE: subjects (Fasted N=45) | Hypoaesthesia Oral, drug-related AE: events (Fasted N=45) | Hypoaesthesia Oral, drug-related AE: subjects (Fasted N=45) | Nausea, drug-related AE: events (Fasted N=45) | Nausea, drug-related AE: subjects (Fasted N=45)
21: Nervous System Disorders Total, drug-related AE: subjects (Fasted N=45) | Possibly or probably related AEs, Mild: subjects (Fasted N=45) | Possibly or probably related AEs, Total: subjects (Fasted N=45)
47%: Nervous System Disorders Total, drug-related AE: % of subjects (Fasted N=45) | Possibly or probably related AEs, Mild: % of subjects (Fasted N=45) | Possibly or probably related AEs, Total: % of subjects (Fasted N=45)
22%: Paraesthesia, drug-related AE: % of subjects (Fasted N=45)
24: All treatment emergent AEs, Mild: subjects (Fasted N=45)
2%: Abdominal Tenderness, drug-related AE: % of subjects (Fasted N=45) | Acne, drug-related AE: % of subjects (Fasted N=45) | All treatment emergent AEs, Moderate: % of subjects (Fasted N=45) | Diarrhoea, drug-related AE: % of subjects (Fasted N=45) | Dysgeusia, drug-related AE: % of subjects (Fasted N=45) | Fatigue, drug-related AE: % of subjects (Fasted N=45) | Feeling Hot, drug-related AE: % of subjects (Fasted N=45) | Hypoaesthesia Facial, drug-related AE: % of subjects (Fasted N=45) | Possibly or probably related AEs, Moderate: % of subjects (Fasted N=45) | Skin and Subcutaneous Tissue Disorders Total, drug-related AE: % of subjects (Fasted N=45) | All treatment emergent AEs, Moderate: % of subjects (Fed N=46) | All treatment emergent AEs, Severe: % of subjects (Fed N=46) | Constipation, drug-related AE: % of subjects (Fed N=46)
